The values that follow come from patent US6071919A, “Zwitterionic compositions and methods as biological response modifiers” (priority 1998, dated 2000).

Series [1] deals with hepatitis B. Description: Example Eleven: patient with chronic hepatitis B infection. The series is classed as in vivo, human. The conditions noted are these: 5000 mg i.v., after thirty days. The text has this: After thirty days, their bilirubin fell to 3.0 and other liver enzymes were reduced by 25 percent or more.
For series [2] the following is noted: ADA: data of Schwarzenbach et al. (1955); cited from earlier work.
For series [3] the following is noted: ADA: data of Schwarzenbach et al. (1955); cited from earlier work. The source holds these as a separate data set.
In series [4] the test system is serum alkaline phosphatase. The series can be described thus: Example Six: serum alkaline phosphatase in healthy canines. The series is classed as in vivo, canine. The conditions noted are these: up to 500 mg/kg, five canines. On the procedure:
Five healthy canines were administered up to 500 mg/kg of HEPES.

Series [5] relates to Herpes Zoster. The series can be described thus: Example Nine: patient with painful Herpes Zoster. It is filed as in vivo, human. As to conditions: 1000 mg i.v. daily. On the procedure:
A person with painful Herpes Zoster unresponsive to conventional treatment was given 1000 mg intravenously of zwitterionic piperazine daily.

For series [6] the following is noted: change of pKa per ° C.; cited from earlier work.

As for `O=S(=O)(O)CCN1CCN(CCO)CC1` [HEPES, N-2 Hydroxyethylpiperazine-N'-2 Ethane Sulfonic Acid], the “reduction of other liver enzymes” value in series [1] is no less than 25%. In series [1] (baseline 5.0), the bilirubin level was 3.0. Moreover, in series [2], the “Metal-Buffer Binding Constants Log KM, Mg^2+” value was “Negl”. Besides, in series [3], the “Metal-Buffer Binding Constants Log KM, Mn^2+” value is reported as “Negl”. Besides, in series [4], the serum alkaline phosphatase result is reported as “not detected by standard laboratory methods in all canines”. Besides, the pain result in series [5] (second day) is “the pain had diminished, so that other analgesia was not required”; in series [5] (seventh day), “no pain at all”. Moreover, the lesions result in series [5] (seventh day) was “the lesions had healed”; in series [5] (third day), “the lesions had crusted and were clearly healing”. The “αpKa /° C.” value in series [6] is -0.014.
